Laboratory results: patent US20190315806A1, “POLYMYXIN DERIVATIVE, PREPARATION METHOD AND APPLICATION THEREOF” (priority 2016, published 2019)
≈ marks a conversion by molar mass, not a printed value. Where two headings read alike, the source gives them in different places. Where a SMILES comes first, the peptide text is derived from it. Bridges are numbered along the chain shown (N, C = ends). [ ]: non-standard residue; d: D form. The star is where a group is joined. Heptanoyl(6-Me) = CC(C)CCCCC(=O)*; X2 = CC[C@H](C)CCCCC(=O)*; dDab = NCC[C@@H](N)C(=O)O; Octanoyl = CCCCCCCC(=O)*; Dab = NCC[C@H](N)C(=O)O

Tests used:
Format in all cases: cell-based
[1] = system: Acinetobacter baumannii ATCC 19606
Outline: (§1)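 Compounds were serially diluted twofold in broth, added to dishes, then mixed with molten agar to give 0.03–128 μg/mL final. Strains grown overnight in nutrient, brain heart infusion or HTM broth were diluted and spotted at 10^4 CFU/dot. Plates were incubated at 35° C. for 18–24 hours before MIC reading.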

[2] = system: Escherichia coli ATCC 25922
Outline: as §1

[3] = system: Pseudomonas aeruginosa ATCC 27853
Outline: as §1

[4] = system: Staphylococcus epidermidis ATCC 12228
Outline: as §1

[5] = system: Klebsiella pneumoniae ATCC BAA-2146 (NDM-1); assay: Antibacterial activity, MIC by dish double dilution method
Outline: as §1

[6] = Nephrotoxicity test, renal cytotoxicity by MTT method; settings: African green monkey
Protocol: African green monkey kidney cells (Vero cells) were cultured in MEM medium (Hyclone), 10% fetal calf serum (Invitrogen) was added before use, cultured at 37° C. under 5% CO2.
Experiment was carried out using MTT method. After digestion, cells in logarithmic growth phase were counted, then the cells were inoculated in a 96-well culture plate. After incubation for 24 h to be adherent, cells were treated with a concentration gradient of a compound of the invention (e.g., a compound prepared in the Embodiments) and the controls. After 72 h, the culture solution was removed, 100 uL of MTT reagent at a concentration of 0.5 mg/ml was added, the medium was removed after incubating for 3 hours in a 37° C. incubator. Add 150 μL DMSO solvent to each well, mix for 3 min, after which the absorbance at 570 nm (A) was measured with a microplate reader.
Cell viability %=(Adosed cell−Abackground)/(Acontrol cell−Abackground)×100%. The average value of 3 parallel wells was taken for each detection point, and the inhibition curve was drawn to calculate the IC50 value.
The African green monkey kidney cells (Vero cells) used in the experiment were from the Cell Resource Center of the Institute of Basic Medicine, Chinese Academy of Medical Sciences.

[7] = agar dilution, 10^4 CFU/dot, 18 to 24 hours at 35° C.

Row | SMILES | MIC A. baumannii ATCC 19606 ([1]; ATCC 19606) [µg/mL] | MIC E. coli ATCC 25922 ([2]; ATCC 25922) [µg/mL] | MIC P. aeruginosa ATCC 27853 ([3]; ATCC 27853) [µg/mL] | MIC S. epidermidis ATCC 12228 ([4]; ATCC 12228) [µg/mL] | MIC K. pneumoniae ATCC BAA-2146 (NDM-1) ([5]; ATCC BAA-2146) [µg/mL] | IC50 at 72 h [6] [µg/mL] | MIC A. baumannii ATCC 19606 [1, 7] [µg/mL] | MIC E. coli ATCC 25922 [2, 7] [µg/mL] | MIC P. aeruginosa ATCC 27853 [3, 7] [µg/mL] | MIC S. epidermidis ATCC 12228 [4, 7] [µg/mL] | MIC K. pneumoniae ATCC BAA-2146 (NDM-1) [5, 7] [µg/mL] | IC50 at 72 h ([6]; MTT, 72 h treatment, 3 parallel wells, read-out: Renal cytotoxicity IC50, Vero cells) [µg/mL]
1 | CC(C)CCCCC(=O)N[C@@H](CCN)C(=O)N[C@H](C(=O)N[C@H](CCN)C(=O)N[C@H]1CCNC(=O)[C@H]([C@@H](C)O)NC(=O)[C@H](CCN)NC(=O)[C@H](CCN)NC(=O)[C@H]([C@@H](C)O)NC(=O)[C@@H](CC(C)C)NC(=O)[C@H](CCN)NC1=O)[C@@H](C)O [Compound 31, 6-methylheptanoyl-Dab-Thr-D-Dab-ring(4-10)[Dab-Dab-D-Leu-Thr-Dab-Dab-Thr]] ({Heptanoyl(6-Me)}-[Dab]T[dDab][Dab][Dab][dL]T[Dab][Dab]T; lactam 4-C) | 0.5 (≈ 0.437 µM) | 0.5 (≈ 0.437 µM) | 1 (≈ 0.875 µM) | >128 | 0.5 (≈ 0.437 µM) | 288 ± 23.3 (≈ 252 µM) |  |  |  |  |  | 
2 | CC[C@H](C)CCCCC(=O)N[C@@H](CCN)C(=O)N[C@H](C(=O)N[C@@H](CCN)C(=O)N[C@H]1CCNC(=O)[C@H]([C@@H](C)O)NC(=O)[C@H](CCN)NC(=O)[C@H](CCN)NC(=O)[C@H](CC(C)C)NC(=O)[C@@H](Cc2ccccc2)NC(=O)[C@H](CCN)NC1=O)[C@@H](C)O [Compound 42, (S)-6-methyloctanoyl-Dab-Thr-Dab-ring(4-10)[Dab-Dab-D-Phe-Leu-Dab-Dab-Thr]] (X2-[Dab]T[Dab][Dab][Dab][dF]L[Dab][Dab]T; lactam 4-C) |  |  |  |  |  |  | 1 (≈ 0.831 µM) | 0.5 (≈ 0.415 µM) | 2 (≈ 1.66 µM) | 32 (≈ 26.6 µM) | 0.5 (≈ 0.415 µM) | 71.3 ± 6.08 (≈ 59.2 µM)
3 | CC(C)CCCCC(=O)N[C@@H](CCN)C(=O)N[C@H](C(=O)N[C@@H](CCN)C(=O)N[C@H]1CCNC(=O)[C@H]([C@@H](C)O)NC(=O)[C@H](CCN)NC(=O)[C@H](CCN)NC(=O)[C@H](CC(C)C)NC(=O)[C@@H](Cc2ccccc2)NC(=O)[C@H](CCN)NC1=O)[C@@H](C)O [Compound 43, 6-methylheptanoyl-Dab-Thr-Dab-ring(4-10)[Dab-Dab-D-Phe-Leu-Dab-Dab-Thr]] ({Heptanoyl(6-Me)}-[Dab]T[Dab][Dab][Dab][dF]L[Dab][Dab]T; lactam 4-C) | 0.5 (≈ 0.42 µM) | 0.5 (≈ 0.42 µM) | 2 (≈ 1.68 µM) | 64 (≈ 53.8 µM) |  | 159 ± 14.1 (≈ 134 µM) |  |  |  |  | 1 (≈ 0.841 µM) | 

Second part, led by results:

Row | MIC A. baumannii ATCC 19606 ([1]; ATCC 19606) [µg/mL] | MIC E. coli ATCC 25922 ([2]; ATCC 25922) [µg/mL] | MIC P. aeruginosa ATCC 27853 ([3]; ATCC 27853) [µg/mL] | MIC S. epidermidis ATCC 12228 ([4]; ATCC 12228) [µg/mL] | MIC K. pneumoniae ATCC BAA-2146 (NDM-1) ([5]; ATCC BAA-2146) [µg/mL] | SMILES | IC50 at 72 h [6] [µg/mL] | MIC A. baumannii ATCC 19606 [1, 7] [µg/mL] | MIC E. coli ATCC 25922 [2, 7] [µg/mL] | MIC P. aeruginosa ATCC 27853 [3, 7] [µg/mL] | MIC S. epidermidis ATCC 12228 [4, 7] [µg/mL] | MIC K. pneumoniae ATCC BAA-2146 (NDM-1) [5, 7] [µg/mL] | IC50 at 72 h ([6]; MTT, 72 h treatment, 3 parallel wells, read-out: Renal cytotoxicity IC50, Vero cells) [µg/mL]
4 | 0.5 (≈ 0.42 µM) | 0.5 (≈ 0.42 µM) | 1 (≈ 0.841 µM) | 32 (≈ 26.9 µM) | 1 (≈ 0.841 µM) | CCCCCCCC(=O)N[C@@H](CCN)C(=O)N[C@H](C(=O)N[C@@H](CCN)C(=O)N[C@H]1CCNC(=O)[C@H]([C@@H](C)O)NC(=O)[C@H](CCN)NC(=O)[C@H](CCN)NC(=O)[C@H](CC(C)C)NC(=O)[C@@H](Cc2ccccc2)NC(=O)[C@H](CCN)NC1=O)[C@@H](C)O [Compound 44, octanoyl-Dab-Thr-Dab-ring(4-10)[Dab-Dab-D-Phe-Leu-Dab-Dab-Thr]] (Octanoyl-[Dab]T[Dab][Dab][Dab][dF]L[Dab][Dab]T; lactam 4-C) | 86.4 ± 8.31 (≈ 72.6 µM) |  |  |  |  |  | 
5 | 4 (≈ 3.33 µM) | 4 (≈ 3.33 µM) | 4 (≈ 3.33 µM) | 8 (≈ 6.66 µM) | 4 (≈ 3.33 µM) | CCCCCCCC(=O)N[C@@H](CCN)C(=O)N[C@H](C(=O)N[C@@H](CCN)C(=O)N[C@H]1CCNC(=O)[C@H](CC(C)C)NC(=O)[C@H](CCN)NC(=O)[C@H](CCN)NC(=O)[C@H](CC(C)C)NC(=O)[C@@H](Cc2ccccc2)NC(=O)[C@H](CCN)NC1=O)[C@@H](C)O [Compound 129, octanoyl-Dab-Thr-Dab-ring(4-10)[Dab-Dab-D-Phe-Lue-Dab-Dab-Lue]] (Octanoyl-[Dab]T[Dab][Dab][Dab][dF]L[Dab][Dab]L; lactam 4-C) |  |  |  |  |  |  | 
6 | 1 (≈ 0.849 µM) | 0.5 (≈ 0.425 µM) | 1 (≈ 0.849 µM) | >128 | 1 (≈ 0.849 µM) | CC(C)CCCCC(=O)N[C@@H](CCN)C(=O)N[C@H](C(=O)N[C@H](CCN)C(=O)N[C@H]1CCNC(=O)[C@H]([C@@H](C)O)NC(=O)[C@H](CCN)NC(=O)[C@H](CCN)NC(=O)[C@H]([C@@H](C)O)NC(=O)[C@@H](Cc2ccccc2)NC(=O)[C@H](CCN)NC1=O)[C@@H](C)O [Compound 144, 6-methylheptanoyl-Dab-Thr-D-Dab-ring(4-10)[Dab-Dab-D-Phe-Thr-Dab-Dab-Thr]] ({Heptanoyl(6-Me)}-[Dab]T[dDab][Dab][Dab][dF]T[Dab][Dab]T; lactam 4-C) |  |  |  |  |  |  | 
